Measured values from PubChem BioAssay (NCI).
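Five compound concentrations were applied to cells in 96-well plates for 48 hours; endpoints were derived by simple linear interpolation of the resulting dose-response curve. GI50 = concentration required for 50% inhibition of growth. TGI: concentration producing complete growth inhibition.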

Columns and labels:
Experiment in all cases: NCI-60 cell line screen, 48 h
OVCAR-8 ovarian = test system: OVCAR-8 ovarian
OVCAR-5 ovarian = test system: OVCAR-5 ovarian
SW-620 colon = test system: SW-620 colon
SR leukemia = test system: SR leukemia
TK-10 renal = test system: TK-10 renal
SNB-19 CNS = test system: SNB-19 CNS
HT29 colon = test system: HT29 colon
SF-539 CNS = test system: SF-539 CNS
NCI-H23 lung = test system: NCI-H23 lung
UACC-257 melanoma = test system: UACC-257 melanoma
EKVX NSCLC = test system: EKVX NSCLC
HL-60(TB) leukemia = test system: HL-60(TB) leukemia
NCI/ADR-RES ovarian = test system: NCI/ADR-RES ovarian
MDA-MB-435 = test system: MDA-MB-435
BT-549 breast = test system: BT-549 breast
LOX IMVI melanoma = test system: LOX IMVI melanoma
U251 CNS = test system: U251 CNS
UACC-62 melanoma = test system: UACC-62 melanoma
CAKI-1 renal = test system: CAKI-1 renal
DU-145 prostate = test system: DU-145 prostate
RXF 393 renal = test system: RXF 393 renal
786-0 renal = test system: 786-0 renal
A549 NSCLC = test system: A549 NSCLC
SK-MEL-28 melanoma = test system: SK-MEL-28 melanoma
T-47D breast = test system: T-47D breast
HCC-2998 colon = test system: HCC-2998 colon
NCI-H226 lung = test system: NCI-H226 lung
MOLT-4 leukemia = test system: MOLT-4 leukemia
HCT-116 colon = test system: HCT-116 colon

Molecule `CC([C@H]1CC=C2C3CCC4=C[C@@H](N(C)C)CC[C@]4(C)C3CC[C@@]21C)N(C)C` (some centres not stated) has a GI50 (OVCAR-8 ovarian) of 5.85 µM, a TGI (OVCAR-8 ovarian) of 22.3 µM and a GI50 (OVCAR-5 ovarian) of 6.23 µM. It also gave a TGI (OVCAR-5 ovarian) of 19.5 µM, a GI50 (SW-620 colon) of 2.49 µM and a TGI (SW-620 colon) of 8.24 µM. The GI50 (SR leukemia) was 0.876 µM, the TGI (SR leukemia) was 4.19 µM and the GI50 (TK-10 renal) was 5.42 µM. The TGI (TK-10 renal) was 20 µM, the GI50 (SNB-19 CNS) was 7.57 µM and the TGI (SNB-19 CNS) was 20.4 µM. The GI50 (HT29 colon) was 0.455 µM, the TGI (HT29 colon) was 2.11 µM and the GI50 (SF-539 CNS) was 1.4 µM. For the same molecule, the TGI (SF-539 CNS) was 2.84 µM, the GI50 (NCI-H23 lung) was 3.15 µM and the TGI (NCI-H23 lung) was 14.8 µM. It also gave a GI50 (UACC-257 melanoma) of 6.1 µM, a TGI (UACC-257 melanoma) of 19.4 µM and a GI50 (EKVX NSCLC) of 1.99 µM. The TGI (EKVX NSCLC) was 18.3 µM, the GI50 (HL-60(TB) leukemia) was 1.26 µM and the TGI (HL-60(TB) leukemia) was 3.66 µM. It also gave a GI50 (NCI/ADR-RES ovarian) of 4.25 µM, a TGI (NCI/ADR-RES ovarian) of 18.2 µM and a GI50 (MDA-MB-435) of 2 µM. For the same molecule, the TGI (MDA-MB-435) was 4.94 µM, the GI50 (BT-549 breast) was 3.54 µM and the TGI (BT-549 breast) was 15.4 µM. For the same molecule, the GI50 (LOX IMVI melanoma) was 1.6 µM, the TGI (LOX IMVI melanoma) was 3.69 µM and the GI50 (U251 CNS) was 3.21 µM. For the same molecule, the TGI (U251 CNS) was 15.4 µM, the GI50 (UACC-62 melanoma) was 1.75 µM and the TGI (UACC-62 melanoma) was 3.59 µM. For the same molecule, the GI50 (CAKI-1 renal) was 2.49 µM, the TGI (CAKI-1 renal) was 10.3 µM and the GI50 (DU-145 prostate) was 6.63 µM. The TGI (DU-145 prostate) was 20.4 µM, the GI50 (RXF 393 renal) was 4.28 µM and the TGI (RXF 393 renal) was 17.3 µM. It also gave a GI50 (786-0 renal) of 2.94 µM, a TGI (786-0 renal) of 7.99 µM and a GI50 (A549 NSCLC) of 3.97 µM. The TGI (A549 NSCLC) was 11.1 µM, the GI50 (SK-MEL-28 melanoma) was 1.74 µM and the TGI (SK-MEL-28 melanoma) was 3.38 µM. For the same molecule, the GI50 (T-47D breast) was 1.17 µM, the TGI (T-47D breast) was 7.77 µM and the GI50 (HCC-2998 colon) was 4.21 µM. The TGI (HCC-2998 colon) was 13.1 µM, the GI50 (NCI-H226 lung) was 4.52 µM and the TGI (NCI-H226 lung) was 21.5 µM. The GI50 (MOLT-4 leukemia) was 1.97 µM, the TGI (MOLT-4 leukemia) was 5.31 µM and the GI50 (HCT-116 colon) was 1.07 µM.
